Columns and labels:
[1] = system: HCT 116 human colon cancer cells; experiment: MTT cell viability assay, HCT 116; assay type: cell-based; settings: MTT
Description: (§2) HIEC6 human healthy intestinal cells and HCT 116 and HT-29 human colon cancer cells were supplied by ATCC. Colon cancer cells were cultured in Dulbecco’s modified Eagle’s medium (DMEM) for HCT 116 and HT-29 supplemented with fetal bovine serum (10%). HIEC6 cells were cultured in Opti-MEM supplemented with fetal bovine serum (4%), HEPES (20 mM), glutamine (10 mM), and epidermal growth factor (10 ng/mL). Cells were maintained at 37 °C in a humidified atmosphere containing 5% CO2. Cells were seeded at 30% confluence in DMEM for HCT 116 and in Opti-MEM for HIEC6; after cell adhesion, HIEC6 cells were cultured in DMEM for 24h before being treated. All cells were treated with the indicated components at concentrations of 0.25–50 μM and incubated for 1–5 days as specified.
(§3) The MTT assay relies on a colorimetric reaction based on the capacity of living cells to reduce MTT to formazan and change the color to purple, which is easily measured by colorimetry. This assay estimates the cellular viability after the indicated treatments. Cells were treated with MTT (1:10 in culture medium) and incubated at 37 °C for 3 h for HCT 116 and HT-29 or 6 h for HIEC6. After removal of the medium, the formazan was resuspended in DMSO, transferred to p96 plates, and analyzed by a SpectraFLUOR (Tecan) at 542 nm. In all cases, viability was measured in duplicates of each point in three independent experiments.

[2] = system: HIEC6 human healthy intestinal cells; experiment: MTT cell viability assay, HIEC6; assay type: cell-based; settings: MTT; for Reduction in viability of healthy cells (HIEC6): 5 μM
Description: as §2, §3

[3] = 195Pt NMR reduction kinetics with ascorbic acid; assay type: physicochemical; settings: AsA 4:1 excess, DMSO/D2O (4:1), 37 °C, 2, 6, 24 h
Description: (§1) AsA presents an intracellular concentration of 1 mM, whereas the GSH concentration is 2 mM.[38] This reactivity was monitored by ^195Pt NMR at different times. Thus, by analyzing the different regions where the signals of Pt(II)/Pt(IV) species appear, it is possible to identify and assign the different compounds formed during the reaction. In most cases, the regions where the Pt(II) and Pt(IV) signals appear are separated by more than 3000 ppm.[33]
We first studied the reduction of the complexes against AsA, monitoring the reaction in both the Pt(IV) and Pt(II) region at 2, 6, and 24 h. In both cases, we used a mixture of DMSO/D2O (4:1) to reach the solubilization of the complexes and the AsA. In the Pt(IV)-biSi-1 reduction experiment, during the first hour, only the signal at 1210 ppm appeared in the Pt(IV) region (Figure S13A), which corresponds to the original complex, and no signal was detected in the Pt(II) region.
Each solution was then slowly added to 100 μL of a solution of the corresponding reducing agent (AsA or GSH in an excess of 4:1 against each complex) in D2O at 37 °C. After that, 100 μL of DMSO-d6 was added carefully to each mixture, reaching a final concentration of […] (DMSO-d6/D2O). All of these mixtures were performed using a thermoshaker. Each sample was monitored by ^195Pt NMR at 2, 6, and 24 h.

[4] = 195Pt NMR reduction kinetics with glutathione; assay type: physicochemical; settings: GSH 4:1 excess, DMSO/D2O (4:1), 37 °C, 2, 6, 24 h
Description: as §1
The reactivity of both complexes toward the reducing agent GSH was also studied using the DMSO/D2O (4:1) mixture. […] In the Pt(II) region, two signals appeared after 24 h at −2728 and −3405 ppm (Figure 2G). The first value is consistent with the cis-PtN2SX fraction,[41],[42] meaning that this species, once reduced to its Pt(II) homologue, coordinates with GSH by displacing a chloride ligand. The second signal corresponds to another Pt(II) moiety with more than one ligand containing sulfur atoms. […]
Each solution was then slowly added to 100 μL of a solution of the corresponding reducing agent (AsA or GSH in an excess of 4:1 against each complex) in D2O at 37 °C. […] Each sample was monitored by ^195Pt NMR at 2, 6, and 24 h.

[5] = Stability in DMEM by 195Pt NMR; assay type: physicochemical; settings: DMSO-d6/DMEM 1:4, 37 °C, 0, 24, 48, 120 h
Excerpt: We then decided to evaluate the stability of the two Pt(IV) complexes in the medium (DMEM) used to carry out the in vitro experiments, monitoring their kinetics by ^195Pt NMR at different times to evaluate the possible species formed over time. DMEM is supplemented with proteins and other molecules essential for cell growth (Experimental Section). Thus, similar to the reduction assays, we analyzed the Pt(II)/Pt(IV) region where the expected species appear. […] Both Pt(IV)/Pt(II) signals disappeared after 48 h, most likely again because of the binding of the complex to the proteins.
To each solution was then slowly and carefully added 300 μL of DMEM to avoid the precipitation of the complex, reaching a final concentration of 1:4 (DMSO-d6/DMEM). All these mixtures were performed using a thermoshaker. Each sample was monitored by ^195Pt NMR at 0, 24, 48, and 120 h.

HCT 116 cells = experiment: Trypan blue exclusion test; assay type: cell-based, human; settings: HCT 116, 0.5 μM, 2 days
Description: HCT 116 cells were harvested by trypsinization followed by centrifugation at 500g for 5 min. The cell pellet was resuspended in 1 mL of PBS. Equal volumes of trypan blue (Bio-Rad cat. no. 1450021) 0.4% and cell suspension were mixed and incubated for 1–3 min at room temperature, and cell counting was carried out using a TC20 Automated Cell Counter (Bio-Rad cat. no. 1450102). The percentage of viable cells was calculated by dividing the number of viable cells per milliliter by the number total of cells per milliliter) × 100. Representative images were acquired using a Zeis light microscope with a 20× objective.

[6] = system: p53 protein levels in HCT 116 cells; experiment: Western blot of p53 levels; assay type: cell-based, human; settings: HCT 116, 48 h, increasing concentrations
Description: Confocal imaging of the DNA damage response was followed by immunofluorescence of histone gH2Ax foci at double-strand DNA breaks (DSB) (Figure 4A). […] However, none of the Pt(IV) prodrugs were able to increase p53 levels even at concentrations higher than those needed to reduce cell viability.
Cells were washed with iced PBS before extract preparation and scraped in whole-cell protein lysis buffer (62.5 mM Tris-HCl pH 6.8, 2% sodium dodecyl sulfate (SDS), 0.01% bromophenol blue sodium salt, and 10% glycerol). Whole-cell protein lysates were incubated 15 min at 95 °C and directly used as whole cell extract or frozen at −80 °C. Proteins from lysed cells or immunoprecipitates were denatured and loaded on sodium dodecyl sulfate polyacrylamide gels and then transferred to polyvinylidene difluoride membranes (Bio-Rad). After blocking with 5% (w/v) milk, the membrane was incubated with the corresponding primary antibodies, anti-p53 sc-126 (Santa Cruz Biotechnology) or anti-tubulin (Sigma-Aldrich), and secondary antibodies (Bio-Rad). The specific bands were analyzed using the ChemiDoc Imaging Systems (Bio-Rad).

[7] = 2 days, experiment with intermediates, Figure 3A
[8] = 2 days, (final complexes, Figure 3B)

cis-Dichloro(diisopropylamine)-trans-dihydroxoplatinum(IV) [iproplatin, reference compound]
Cell viability, HCT 116 5uM 2 days [1, 7]: 73.6 ± 5.4%
Cell viability, HIEC6 5uM 2 days [2, 7]: 69.8 ± 6.3%

CCO[Si](CCCNC(=O)[O][Pt]([NH2])([NH2])([Cl])([Cl])[O]C(=O)NCCC[Si](OCC)(OCC)OCC)(OCC)OCC [Pt(IV)-biSi-1, cis-Dichloro(diamine)-trans-[3-(triethoxysilyl)propylcarbamate]platinum(IV)]
Cell viability, HCT 116 0.5uM 2 days ([1]; 0.5 uM, 2 days): 70.1 ± 6.0%
Reduction of viability (cytotoxicity) of HCT 116 tumor cells ([1]; 0.5 μM, 2 days): very similar to those of cisplatin
Cell viability, HCT 116 0.5uM 5 days ([1]; 0.5 uM, 5 days): 87.0 ± 5.0%
Reduction in viability of cancer cells (HCT 116) ([1]; 5 μM, 2 days): 20%
Cell viability, HCT 116 5uM 2 days [1, 8]: 78.8 ± 3.1%
IC50 ([1]; 48 h, supplementary CSV, read-out: IC50 (uM) HCT 116): 8.9 ± 0.6 µM
Cell viability, HIEC6 0.5uM 2 days ([2]; 0.5 uM, 2 days): 99.5 ± 1.8%
Cell viability, HIEC6 0.5uM 5 days ([2]; 0.5 uM, 5 days): 105.3 ± 3.6%
Reduction in viability of healthy cells (HIEC6) ([2]; 2 days): 60%
Cell viability, HIEC6 5uM 2 days [2, 8]: 40.0 ± 1.8%
IC50 ([2]; 48 h, supplementary CSV, read-out: IC50 (uM) HIEC6): 5.1 ± 0.7 µM
Reduction of the Pt(IV) complex by AsA (Pt(IV) signal in 195Pt NMR) [3]: after 24 h, this signal underwent a marked decrease in intensity
Reduction of the Pt(IV) complex by GSH (Pt(IV) signal in 195Pt NMR) [4]: at 24 h, there is still a fraction of free complex without undergoing reduction
Stability in DMEM (Pt(IV) signal in 195Pt NMR) [5]: decreases with time up to 48 h, where a small fraction of the initial complex remains intact
Reduction of viability by trypan blue staining (HCT 116 cells): 20%

N.N.[Cl-].[Cl-].[OH-].[OH-].[Pt+4] [oxoplatin, cis-Dichloro(diamine)-trans-dihydroxoplatinum(IV), reference compound]
Cell viability, HCT 116 5uM 2 days [1, 7]: 82.9 ± 6.0%
Cell viability, HIEC6 5uM 2 days [2, 7]: 65.3 ± 10.9%

N.N.[Cl][Pt][Cl] [cisplatin, Cisplatin, reference compound]
Cells survived, HCT 116 ([1]; 5 μM, 5 days chronic treatment): more than 50%
p53 levels [6]: increased p53 levels (at all concentrations)
Reduction in viability of healthy cells (HIEC6) ([2]; 2 days): 60%
Reduction of viability by trypan blue staining (HCT 116 cells): 20%
